{
  "source": "patent US20130295179A1",
  "about": "“NOVEL OMEGA-3 AND OMEGA-6 FATTY ACID COMPOSITIONS AND USES THEREOF” (priority 2010, published 2013)",
  "assay_type_in_all_cases": "in vivo, human",
  "key": {"[1]": {"test_system": "children between 6 and 12 years of age with a newly diagnosed ADHD", "experiment": "ADHD Rating Scale Spanish version (parent ADHD-RS-SV), randomized pilot trial (Example 7)", "experimental": "(§1) The trial was performed at the Neurology Department of the Hospital Infantil de México Federico Gomez (Health National Institute for children's in Mexico) as a randomized pilot trial. Three treatment groups were compared: group A: MTP; group B: Omega 3/6; group C: MTP+Omega 3/6. Subjects were randomized to one of these groups after screening. After inclusion to the trial, the subjects underwent three different trial periods: the 4 weeks titration period (only for the group A and group C in relation to the MTP), the 12 months evaluation period and the 6 months follow up period (FIG. 1)\n(§2) A total of 107 children between 6 and 12 years of age with a newly diagnosed ADHD entered the screening phase of the trial. The presence of any previous ADHD treatment was an exclusion criterion. 17 children were screening failures and could not be included to the trial. After written informed consent by the parents or tutors of the children, a total of 90 patients were distributed to the three groups following a randomization to the three groups against a set of arbitrary numbers.\nInclusion criteria: Patients from 6 to 12 years old, diagnosed as having attention-deficit hyperactivity disorder by the DSM-IV, agreement to take part in the survey (letter of informed consent signed by the parent or tutor and letter of acknowledgement). Exclusion criteria: any Axis I psychiatric diagnosis other than ADHD except oppositional defiant behaviour disorder, neurological deficit, seizures or tics; previous treatment of suitable doses of methylphenidate; patients with known hypersensitivity to omega-3.\n(§3) The omega-3/omega6 fatty acid supplement was used. The daily dosage of this omega 3/6 was of three capsules twice daily, corresponding to a daily dose of 558 mg EPA, 174 mg DHA and 60 mg gamma-linolenic. This specific product was chosen because it was the product and the daily dosage used in three previous clinical studies showing significant positive improvements on ADHD related symptoms without showing significant adverse events.\n(§4) The stimulant used in this trial was short or long acting methylphenidate (hereafter termed MTP). The daily dose was calculated to start at a concentration of 0.5 mg/kg/day to reach a maximum of 1 mg/kg/day depending on the response and the tolerance. The doses were adjusted weekly.\n(§5) Clinical assessments were made at four time points: at baseline, after 3 months, after 6 months and after 12 months. The study consisted in six stages with a total of 12 visits including the screening visit (screening visit 0) and the period of selection and titration of the medication in the case of the group A & C (first 4 weeks). At baseline all the included patients were newly diagnosed with ADHD being drug-naïve (no previous treatment with omega 3/6, MTP or atomoxetine was permitted). ADHD diagnosis was made for patients who met DMS-IV criteria of any subtype and by using the ADHD-RS-VE (Spanish version) and the CEAL (Latin American scale for ADHD). The presence of any associated condition (comorbidity) was assessed by clinical interview according to DSM-IV criteria. The investigator made a medical evaluation, including weight, height, cephalic perimeter, neurological evaluation, sleep patrons and other comorbidities. A questionnaire for the symptoms of fatty acids deficiency was applied, where 0 means without symptoms and 3 with a high degree of symptoms. We analyzed blood samples for biometry hematic and hepatic function.\n(§6) For clinically meaningful response, definition of clinical trials with ADHD medications was used, that is: a reduction of at least 25% of the symptoms scores on the ADHD-RS scale. The other important variable was the permanence time in the study measuring efficacy and tolerability. The overall clinical impression of symptom severity and functional impairment was measured with the CGI severity scale, which is a clinician rating of the patient's symptom severity related to the clinician's total experience with ADHD patients. […]"}, "[2]": {"test_system": "children between 6 and 12 years of age with a newly diagnosed ADHD", "experiment": "Side effects / adverse events, randomized pilot trial (Example 7)", "experimental": "as §1, §2, §3, §4\nThe patients was evaluated at baseline including a physical examination, including height and weight, pulse and blood pressure, a neuromotor examination and assessment of the general level of functioning with CGI. We evaluated each week for the first four weeks and each month for a year. The adverse events (AE) were evaluated at any clinic event appointed by the parents and with an impact over the patients, independently if it was associated or not with the medication. This includes exacerbation of the preexistence symptoms. It was important to note the moment of these AE."}, "[3]": {"test_system": "children between 6 and 12 years of age with a newly diagnosed ADHD", "experiment": "Clinical Global Impression (CGI) severity, randomized pilot trial (Example 7)", "experimental": "as §1, §2, §3, §4, §5, §6"}, "[4]": {"test_system": "Newly diagnosed ADHD children", "experiment": "RCT of omega-3/6 alone or in combination with methylphenidate, one year follow-up (Example 6)", "conditions": "evaluated by the parents", "experimental": "Newly diagnosed ADHD children of both genders, 6 to 12 years old, were included in a RCT with one year follow-up in a 3-arm design (A: Omega-3/6; B: Omega 3/6+MTP; and C: MTP). The omega-3/6 fatty acid dosage used was EPA/DHA/GLA (9:3:1) in a total of 792 mg/day (Equazen™). MTP was prescribed in a dosage of 1 mg/kg/day (titration).\nThe ADHD diagnosis and follow up were made using the Diagnostic and Statistical Manual of Mental Disorders fourth edition (DSM-IV) scale, the ADHD Rating Scale Spanish version (ADHD-RS-VE), and the CEAL (Latin-American scale for ADHD) and overall clinical impression (CGI). For clinically meaningful response, a reduction of at least 25% of the symptoms was used. The adverse events (AE) were evaluated by the parents based on the impact on the patients."}, "[5]": {"test_system": "children between 6 and 12 years of age with a newly diagnosed ADHD", "experiment": "Continuity in the study, withdrawals and MTP dose needed, randomized pilot trial (Example 7)", "conditions": "12 months, n = 30 per group", "experimental": "as §1, with “1) […]” for “1)”\nThe stimulant used in this trial was short or long acting methylphenidate (hereafter termed MTP). The daily dose was calculated to start at a concentration of 0.5 mg/kg/day to reach a maximum of 1 mg/kg/day depending on the response and the tolerance. […]\nas §6, with “The other important variable was the permanence time in the study measuring efficacy and tolerability.” left out"}, "[6]": {"conditions": "in % of the subjects, n = 30 per group"}},
  "note": "Values joined by “and” are separate entries in the source; they are usually repeats but may differ in a detail not shown here. Equal entries are not always repeated.",
  "data": [
    {"smiles": "COC(=O)C(c1ccccc1)C1CCCCN1", "note": "(stereo not drawn) [MTP, methylphenidate]", "values": [
      {"measurement": "ADHD RS total score after one month", "setting": "[1]; after one month treatment", "result": "27.6±4.97"},
      {"measurement": "response of the hyperactivity symptom", "setting": "[1]; comparison of the three treatments", "result": "greater impact"},
      {"measurement": "ADHD RS, total score, After 3 months", "setting": "[1]; mean, after 3 months", "result": "25.29 ± 4.18"},
      {"measurement": "Hyperactive/impulsive subscale, After 3 months", "setting": "[1]; mean, after 3 months", "result": "13.25±3.05"},
      {"measurement": "Inattentive subscale, After 3 months", "setting": "[1]; mean, after 3 months", "result": "12.04±1.78"},
      {"measurement": "ADHD RS, total score, After 12 months", "setting": "[1]; mean, after 12 months", "result": "23.55 ± 1.72"},
      {"measurement": "Hyperactive/impulsive subscale, After 12 months", "setting": "[1]; mean, after 12 months", "result": "12.1±1.29"},
      {"measurement": "Inattentive subscale, After 12 months", "setting": "[1]; mean, after 12 months", "result": "11.45±1.32"},
      {"measurement": "ADHD RS, total score, Baseline", "setting": "[1]; mean, baseline", "result": "41.43±4.32 and 41.43 ± 4.39"},
      {"measurement": "Hyperactive/impulsive subscale, Baseline", "setting": "[1]; mean, baseline", "result": "19.93±5.11"},
      {"measurement": "Inattentive subscale, Baseline", "setting": "[1]; mean, baseline", "result": "21.47±3.20"},
      {"measurement": "Headache", "setting": "[2]; [6]", "result": 23.3, "unit": "%"},
      {"measurement": "Hiporexia", "setting": "[2]; [6]", "result": 53.3, "unit": "%"},
      {"measurement": "Irritability", "setting": "[2]; [6]", "result": 16.7, "unit": "%"},
      {"measurement": "Pallor", "setting": "[2]; [6]", "result": 16.7, "unit": "%"},
      {"measurement": "Palpitation", "setting": "[2]; [6]", "result": 13.3, "unit": "%"},
      {"measurement": "Seasickness", "setting": "[2]; [6]", "result": 1.0, "unit": "%"},
      {"measurement": "Sleeplessness", "setting": "[2]; [6]", "result": 6.7, "unit": "%"},
      {"measurement": "Tension", "setting": "[2]; [6]", "result": 16.7, "unit": "%"},
      {"measurement": "Tics", "setting": "[2]; [6]", "result": 6.7, "unit": "%"},
      {"measurement": "Tremor", "setting": "[2]; [6]", "result": 1.0, "unit": "%"},
      {"measurement": "hyporexia, number of patients", "setting": "[2]; of 30 per group", "result": 16, "unit": "patients"},
      {"measurement": "CGI severity category reached after treatment", "setting": "[3]; from marked/severe before the treatment", "result": "mild/moderate"},
      {"measurement": "investigator rated CGI, baseline", "setting": "[3]; scale 1 (normal) to 7, baseline mean", "result": "6.30±0.65"},
      {"measurement": "investigator rated CGI, first treatment month", "setting": "[3]; scale 1 to 7, 1 month", "result": "3.67±1.21"},
      {"measurement": "investigator rated CGI severity at 3 months", "setting": "[3]; scale 1 to 7, 3 months", "result": "4.42±1.02"},
      {"measurement": "investigator rated CGI severity at 6 months", "setting": "[3]; scale 1 to 7, 6 months", "result": "3.75±0.44 and 3.90±0.45"},
      {"measurement": "most frequent AE", "setting": "[4]", "result": "weight reduction, hyporexia, and anxiety"},
      {"measurement": "patients who left the study because of side effects", "setting": "[5]", "result": 6, "unit": "patients"},
      {"measurement": "patients who withdrew for lack of efficacy", "setting": "[5]", "result": 2, "unit": "patients"}
    ]}
  ]
}
